{"source": "patent US3930838A", "about": "“S-benzyl-N,N-disec-butylthiocarbamate and its use as a rice field herbicide and a rice growth stimulant” (priority 1970, dated 1976)", "key": {"[1]": {"system": "Barnyard grass", "experiment": "Rice seed treatment, 5000 square meter field plots, test No. 3, barnyard grass (Example 17)", "format": "in vivo", "settings": "67 days; for Barnyard grass tiller number: single 1 m^2 testing area", "experimental": "(§1) A further test was carried out outdoors on loam soil on plots of about 5000 square meters surface.\n(§2) After flooding each plot, seeds treated as in Test No. […] In all cases, the seen quantity was 150 kg./ha. 67 days after sowing, the results were gathered on 5 representative testing areas of 1 square meter each for each dosage level."}, "[2]": {"system": "Echinocloa spp.", "experiment": "Activity on Echinocloa in flooded hothouse boxes, first sowing (Example 14)", "format": "in vivo", "settings": "24 days", "experimental": "A test was arranged in a hothouse on a set of boxes having a 1,000 cm^2 internal surface. 18 Kg. of sieved rice field earth were put into each box. After leveling, the earth surfaces of each of a set of six boxes were uniformly sprayed with hydroacetone solutions containing, respectively, 0, 0.5, 0.75, 1, 1.25, and 1.5% of M3432. […] Each box was flooded with a 10 cm. water layer measured from the earth surface. The sowing was carried out immediately afterwards with a pre-germinated (cv) RIBE rice seed, employing a quantity of 40 seeds per box.\nThe same method described in Example 9 was followed, the only variation being in sowing Echinocloa spp. (40 slightly pregerminated seeds per box) instead of rice.\n24 Days after the treatment, the results were observed."}, "[3]": {"system": "rice", "experiment": "Outdoor comparison of rice stimulating action of M3432 with lower homologues and isomers (Example 11)", "format": "in vivo", "settings": "21 days after sowing", "experimental": "In the province of Pavia, a test was carried out with outdoor treatments in a loam soil, on rice plots having a 12 m^2 surface each.\nFormulations of 20% M3432 in emulsifiable oil were compared with 20% formulations in emulsifiable oil of S-benzyl-N,N-diisopropyl thiocarbamate; S-benzyl-N,N-diisobutylthiocarbamate; and S-benzyl-N,N-din.butylthiocarbamate employing quantities of 4, 6 and 20 kg./ha.\nFor each treatment, the results were gathered on 20 plants 21 days after the sowing."}, "[4]": {"system": "Echinocloa spp.", "experiment": "Post emergence hothouse test No. 1 (Example 16)", "format": "in vivo", "settings": "4, 6, and 8 kg./ha., 3 days; plants 3-4 cm. at treatment", "experimental": "A set of boxes having a 1,000 cm^2 internal surface was prepared in a hothouse according to the method described in Example 9. The boxes were sowed with Echinocloa spp. (70 seeds per box). After saturation of the soil, and as soon as the infesting plants emerged from the soil, the boxes were flooded with a 7 cm. layer of water. When the plants reached a maximum height of 3-4 cm., the treatment was effected by spraying the flooding water surfaces with hydroacetone solutions according to the modalities employed in Example 9. 3 days after the treatment, the following results were observed: […]"}, "[5]": {"system": "rice", "experiment": "Rice seed treatment, 5000 square meter field plots, test No. 3, rice (Example 17)", "format": "in vivo", "settings": "67 days; for Rice tiller dry weight / Rice tiller number: single 1 m^2 testing area", "experimental": "as §1, §2"}, "[6]": {"system": "Echinocloa spp.", "experiment": "Post emergence hothouse test No. 2 (Example 16)", "format": "in vivo", "settings": "4, 6, and 8 kg./ha., 26 days; plants max. 10 cm. at treatment", "experimental": "A set of boxes having a 1,000 cm^2 internal surface was prepared in a hothouse according to the method described in Example 9. The boxes were sowed with Echinocloa spp. (70 seeds per box). After saturation of the soil, and as soon as the infesting plants emerged from the soil, the boxes were flooded with a 7 cm. layer of water. When the plants reached a maximum height of 3-4 cm., the treatment was effected by spraying the flooding water surfaces with hydroacetone solutions according to the modalities employed in Example 9. 3 days after the treatment, the following results were observed:\nA second test was carried out in the same manner as Test No. 1 except that the treatment took place when the infesting plants had reached a maximum of 10 cm. 26 days after such treatment, the following was observed: […]"}, "[7]": {"experiment": "Acute oral toxicity, rats", "settings": "rat, in vivo, per os"}, "[8]": {"system": "rice", "experiment": "Post emergence outdoor plot test No. 3, rice (Example 16)", "format": "in vivo", "settings": "45 days, emulsifiable oil", "experimental": "Some plots, 12 m^2 each, delimited by artificial levees, were prepared outdoors. AFter soil working and grading, the plots were sowed with Echinocloa spp. on May 18, 1970 and then flooded to a height of 10 cm. with water on May 20, 1970. The same day, rice was sowed in quantities corresponding to 150 kg. of seed per ha. Both rice and Echinocloa emerged from the soil 5 days after the flooding.\nWhen the barnyard grass reached an average height of 12-14 cm., the treatment was effected by uniformly spraying the flooded water surface.\nProducts being tested: M3432 and molinate, in emulsifiable oil base.\nDoses: 0, 4, and 6 kg./ha.\nThe first effects on Echinocloa spp. were noticed for both products 7 days after treatment, 45 Days after treatment the following was observed: […]"}}, "note": "“And” between values parts separate entries of the source, which are not always exact repeats. Equal values may be shown once."}
{"smiles": "CCC(C)N(C(=O)SCc1ccccc1)C(C)CC", "note": "(stereo not drawn) [M3432, S-benzyl-N,N-disec.butylthiocarbamate]", "values": [{"measurement": "Barnyard grass tiller number", "setting": "[1]; 3.4 kg./ha.", "value": "0 (no.)/m^2"}, {"measurement": "Barnyard grass tiller number, average on 5 testing areas", "setting": "[1]; 3.6 kg./ha.", "value": "0 (no.)/m^2"}, {"measurement": "Barnyard grass tiller number, average on 5 testing areas", "setting": "[1]; 4.0 kg./ha.", "value": "0 (no.)/m^2"}, {"measurement": "Barnyard grass tiller number", "setting": "[1]; 4.0 kg./ha.", "value": "0 (no.)/m^2"}, {"measurement": "Shoot", "setting": "[2]; 2 kg./ha.", "value": 8.5, "unit": "cm."}, {"measurement": "Stand", "setting": "[2]; 2 kg./ha.", "value": 2.5, "unit": "%"}, {"measurement": "Shoot", "setting": "[2]; 4 kg./ha.", "value": 0, "unit": "cm."}, {"measurement": "Stand", "setting": "[2]; 4 kg./ha.", "value": 0, "unit": "%"}, {"measurement": "Shoot", "setting": "[2]; 6 kg./ha.", "value": 0, "unit": "cm."}, {"measurement": "Stand", "setting": "[2]; 6 kg./ha.", "value": 0, "unit": "%"}, {"measurement": "Shoot", "setting": "[2]; 8 kg./ha.", "value": 0, "unit": "cm."}, {"measurement": "Stand", "setting": "[2]; 8 kg./ha.", "value": 0, "unit": "%"}, {"measurement": "Main roots", "setting": "[3]; 4 kg./ha.", "value": 5.55, "unit": "No."}, {"measurement": "Secondary roots", "setting": "[3]; 4 kg./ha.", "value": 2.52, "unit": "No."}, {"measurement": "Shoot", "setting": "[3]; 4 kg./ha.", "value": 7.11, "unit": "cm."}, {"measurement": "Main roots", "setting": "[3]; 6 kg./ha.", "value": 5.73, "unit": "No."}, {"measurement": "Secondary roots", "setting": "[3]; 6 kg./ha.", "value": 2.63, "unit": "No."}, {"measurement": "Shoot", "setting": "[3]; 6 kg./ha.", "value": 7.34, "unit": "cm."}, {"measurement": "Main roots", "setting": "[3]; 20 kg./ha.", "value": 6.76, "unit": "No."}, {"measurement": "Secondary roots", "setting": "[3]; 20 kg./ha.", "value": 2.63, "unit": "No."}, {"measurement": "Shoot", "setting": "[3]; 20 kg./ha.", "value": 7.68, "unit": "cm."}, {"measurement": "Shoot", "setting": "[4]", "value": 0, "unit": "cm."}, {"measurement": "Stand", "setting": "[4]", "value": 0, "unit": "%"}, {"measurement": "Rice tiller dry weight", "setting": "[5]; 3.4 kg./ha.", "value": "254.50 (g.)/m^2 and 331.10 (g.)/m^2 and 301.08 (g.)/m^2 and 373.50 (g.)/m^2 and 332.00 (g.)/m^2"}, {"measurement": "Rice tiller number", "setting": "[5]; 3.4 kg./ha.", "value": "432 (no.)/m^2 and 430 (no.)/m^2 and 421 (no.)/m^2 and 417 (no.)/m^2 and 392 (no.)/m^2"}, {"measurement": "Rice tiller dry weight, average on 5 testing areas", "setting": "[5]; 3.6 kg./ha.", "value": "318.44 (g.)/m^2"}, {"measurement": "Rice tiller number, average on 5 testing areas", "setting": "[5]; 3.6 kg./ha.", "value": "418.4 (no.)/m^2"}, {"measurement": "Rice tiller dry weight, average on 5 testing areas", "setting": "[5]; 4.0 kg./ha.", "value": "438.01 (g.)/m^2"}, {"measurement": "Rice tiller number, average on 5 testing areas", "setting": "[5]; 4.0 kg./ha.", "value": "559.0 (no.)/m^2"}, {"measurement": "Rice tiller dry weight", "setting": "[5]; 4.0 kg./ha.", "value": "473.98 (g.)/m^2 and 316.91 (g.)/m^2 and 484.50 (g.)/m^2 and 423.55 (g.)/m^2 and 491.10 (g.)/m^2"}, {"measurement": "Rice tiller number", "setting": "[5]; 4.0 kg./ha.", "value": "599 (no.)/m^2 and 440 (no.)/m^2 and 687 (no.)/m^2 and 523 (no.)/m^2 and 546 (no.)/m^2"}, {"measurement": "Shoot", "setting": "[6]", "value": 0, "unit": "cm."}, {"measurement": "Stand", "setting": "[6]", "value": 0, "unit": "%"}, {"measurement": "LD50", "setting": "[7]", "value": 10200, "unit": "mg/kg"}]}
{"smiles": "CCSC(=O)N1CCCCCC1", "note": "[Molinate, ethyl-1-hexamethylene-imino-carbothiolate, reference compound]", "values": [{"measurement": "Effect on rice", "setting": "[8]; 4 kg./ha.", "value": "Stronger than the control"}, {"measurement": "Effect on rice", "setting": "[8]; 6 kg./ha.", "value": "Stronger than the control"}]}
